Where no end group is shown, it is not given here. [ ]: non-standard residue; d: D form. Ahx = NCCCCCC(=O)O
Legend:
[1] = test system: live APC (spleenocytes) from NOD (I-A^g7), BALB/c, A.SW, A.BY mice; test: Flow cytometry of biotinylated peptide binding to live APC (spleenocytes) of inbred mouse strains; conditions: for percentage of high-density binding cells: biotinylated peptide 50 μM, overnight; for preferential binding to NOD APC compared with other strains (BALB/c, A.SW, A.BY): biotinylated peptide, live spleenocytes, flow cytometry
Method: Specifically, it was verified that the peptide binds to MHC molecules on live APC. Briefly, spleen cell density-gradient fractions (from mice), or PBL, or APC lines (from humans) were incubated in round bottom 96-well plates with increasing concentrations of individual biotinylated peptides at 37° C., 5% CO2 for 16 hours. Following binding of the BPI to the APC, Avidin-FITC was incubated with the cells on ice for 30 minutes, followed by biotinylated anti-Avidin for 1 hour, then again with Avidin-FITC. For BPI titrations, increasing concentrations (0.1-100 μM) of the biotinylated derivatives in sterile 0.5% BSA-PBS were incubated with the APC for 16 hours as above. […] Three-color analyses used Cy-Chrome or PE-conjugated antibodies to known surface markers of APC that were commercially available. Avidin-FITC and biotinylated anti-Avidin detection of the bound peptide was as previously described in Murray et al., 24 Eur. J. Immunol. 2337-2344 (1994); Murray; 19 Immunology Today 157-163; and Schountz et al., 157 The Journal of Immunology 3893-3901 (1996). Slight modifications of this method were used to test peptide inhibition (i.e., peptide affinity) and co-capping to the MHC and ICAM molecules directly on the live APC surface. […] Unlabeled peptide was used in a competition assay to derive the relative affinity of the BPI for the APC and the ability of the BPI to crosslink the MHC and ICAM molecules on the APC was examined by cocapping ICAM with an anti-MHC mAb. Here, cells were incubated with the BPI. Next, an anti-MHC mAb was added. After 30 minutes at 37° C., the cells were transferred to ice and stained with PE-labeled anti-ICAM (FIG. 7).
To obtain biotinylated BPI, the synthesized EGAD BPI was biotinylated with NHS-Biotin as described in Murray et al., 24 Eur. J. Immunol. 2337-2344 (1994). Spleen cell density-gradient fractions from normal (unimmunized) NOD, BALB/c and other MHC congenic strains were incubated in round bottom 96-well plates with increasing concentrations of individual biotinylated peptides at 37° C., 5% CO2 for 16 hours. Following binding of the BPI to the APC, Avidin-FITC was incubated with the cells on ice for 30 minutes, followed bybiotinylated anti-Avidin for 1 hour, then again with Avidin-FITC. For BPI titrations, increasing concentrations (0.1-100 μM) of the biotinylated derivatives in sterile 0.5% BSA-PBS were incubated with the APC for 16 hours as above. Three-color analyses used Cy-Chrome or PE-conjugated anti-B220 (mAb RA3-6B2 (CD45R B-cell marker), anti-MHC class II (KH74 or 10-3.62 mAb), or anti-ICAM-1 (3E2 mAb); (all purchased from PharMingen, San Diego, Calif.). Bound peptide was detected with avidin-FITC/biotinylated anti-avidin/avidin-FITC on live cells gated by forward/side scatter analysis. Controls contained all detecting reagents in absence of the biotinylated peptide; 20,000 events were analyzed for each histogram with a FACScan (Becton-Dickinson) flow cytometer.
To verify antigenic peptide binding to live APC, initial EGAD-BPI were screened for selective binding to NOD (I-A^g7) APC and assayed for simultaneous binding using monoclonal antibodies against either MHC-II or ICAM-1 by flow cytometry methods using live APC (Murray et al., 24 Eur. J. Immunol. 2337-2344 (1994); Murray; 19 Immunology Today 157-163; and Schountz et al., 157 The Journal of Immunology 3893-3901 (1996)). In this assay, increasing concentrations of the biotinylated-BPI, -CD11a(237-247) or -GAD65(208-217) peptide were incubated overnight with spleenocytes from each inbred strain. Bound peptide was detected with amplification of avidin-FITC fluorescence by the use of a biotinylated anti-avidin reagent, followed by a second round of avidin-FITC binding. Biotinylated peptide was incubated with 10^6 viable cells at a peptide concentrations of 50 μM. Bound peptide was detected with avidin-FITC/biotinylated anti-avidin-FITC. […]

NOD.Scid mice = test: NOD.Scid adoptive transfer model of diabetes progression (blood glucose); assay type: in vivo, mouse; conditions: 7 weeks post adoptive transfer; CD4+ T-cells from treated mice co-transferred with CD25-depleted inducer cells
Method: In another example which tested the diabetes BPI in vivo, 15 million disease-linked lymphocytes (i.e., patient T-cells, or T-cell populations linked to the disease process) were injected with or without T-cells that received the BPI compound (in vivo or in vitro) and were expanded for 24 hours in recombinant IL-2. […] For blocking spontaneous diabetes, five groups of ten female NOD mice (12 weeks of age) were used and monitored for nondiabetic blood glucose levels with a standard glucometer (AccuChek-complete, Roche Diagnostic). Each mouse was labeled and individually monitored for blood glucose levels weekly for the course of the experiment. The five groups received either (a) intravenous (i.v.) injection of the BPI (100 μg in 100 μl endotoxin-free saline/injection) at 8 weeks of age, (b) same dose GAD65 (208-217) epitope alone, (c) same dose CD11a (237-247) peptide alone, or (d) saline alone.
NOD spleen cells from 8 week (non-diabetic) females were used to enrich a CD25-/CTLA4-depleted population by treatment with purified monoclonal antibody (mAb 7D4, PharMingen) followed by low-tox rabbit complement (Cedarlane) (80% depletion of CTLA4+ cells by flow analysis with PE-labeled UC10-4F10-11 mAb; not shown). […] In vitro clonal expansion was with either recombinant IL-2 (R&D systems), or ConA, as described for the ELISPOT experiments. […]

GAD65(208-217)-[Ac-G-Ac-G-Ac]-CD11a (237-247) (EIAPVFVLLE[Ahx]G[Ahx]G[Ahx]ITDGEATDSG) [EGAD-BPI]
percentage of high-density binding cells ([1]; A.BY spleenocytes): 6%
percentage of high-density binding cells ([1]; NOD spleenocytes): 30%
preferential binding to NOD APC compared with other strains (BALB/c, A.SW, A.BY) [1]: higher density
preferential binding to NOD APC compared with other strains (BALB/c, A.SW, A.BY) ([1]; listed as GAD 65 BPI): binds preferentially to NOD APC
mice showing hyperglycemia and progression to diabetes (NOD.Scid mice): 40%

— patent US7786257B2, “Signal-1/signal-2 bifunctional peptide inhibitors” (priority 2000, dated 2010)
